According to PMC10817917, “Alkyl deoxyglycoside-polymyxin combinations against critical priority carbapenem-resistant gram-negative bacteria” (Scientific Reports, 2024):
Read-outs that look alike come from different tables or passages of the source.

How the values were obtained:
[1] = test system: E. coli ATCC 25922; test: Broth microdilution MIC/MBC, glycosides with or without polymyxins; format: cell-based, Escherichia coli; details: for MIC: Escherichia coli, ATCC25922
[2] = test system: HEK-293T cells; test: Resazurin cell viability assay (cytotoxicity); format: cell-based, human; details: Homo sapiens, HEK-293T, 72 h, read-out: IC50
Procedure, shortened: (§1)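 HEK-293T and Caco-2 cells (1.5 × 10^4/well, RPMI 1640 with 10% FBS) exposed 72 h at 37 °C to glycosides at final 100 to 10 µM, alone or with PMB or colistin at final 0.5, 0.25 or 0.125 µg/mL; max DMSO 0.33%. Resazurin added 4 h, read 570/600 nm; IC50 from dose-response fits, mean ± SD of three replicates.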

[3] = test system: Caco-2 cells; test: Resazurin cell viability assay (cytotoxicity); format: cell-based, human; details: Homo sapiens, Caco-2, 72 h, read-out: IC50
Procedure, shortened: as §1

[4] = test system: E. coli NCTC 13846; test: Broth microdilution MIC/MBC, glycosides with or without polymyxins; format: cell-based, Escherichia coli; details: strain B
[5] = test system: K. pneumoniae CQ4921; test: as above; format: cell-based, Klebsiella pneumoniae; details: for MIC: Klebsiella pneumoniae, CQ4921
[6] = test system: Bacillus anthracis (Sterne, ovine and pathogenic forms), Enterococcus faecalis and Bacillus cereus; details: Gram-positive bacteria; cited from earlier work
[7] = test system: A. baumannii CQ4322; test: Broth microdilution MIC/MBC, glycosides with or without polymyxins; format: cell-based, Acinetobacter baumannii; details: for MIC: Acinetobacter baumannii, CQ4322
[8] = alone, read-out: MICA (MIC of each compound individually)
[9] = combination with the lowest FICI
[10] = compound + colistin, lowest FICI
[11] = tested alone (no polymyxin adjuvant)

CCCCCCCCCCCCO[C@@H]1C[C@@H](O)[C@H](O)[C@@H](CO)O1 [Compound 4, dodecyl 2-deoxy-α-D-arabino-hexopyranoside]
MIC of colistin in combination with the compound ([1]; Cpd conc. 0.4 μg/mL, strain A): 0.5 µg/mL
MIC of colistin in combination with the compound ([1]; Cpd conc. 0.8 μg/mL, strain A): 0.5 µg/mL
MIC of colistin in combination with the compound ([1]; Cpd conc. 3.125 μg/mL, strain A): 0.5 µg/mL
MIC of colistin in combination with the compound ([1]; Cpd conc. 6.25 μg/mL, strain A): 0.5 µg/mL
MIC of colistin in combination with the compound ([1]; Cpd conc. 12.5 μg/mL, strain A): 0.5 µg/mL
MIC of colistin in combination with the compound ([1]; Cpd conc. […], strain A): 0.5 µg/mL
MIC ([1]; agent alone, no adjuvant (polymyxin conc. 0), strain A, read-out: MIC): > 100 µg/mL
MIC [1, 8]: > 100 µg/mL
MIC of compound in combination with PMB ([1]; PMB 0.25 μg/mL, strain A): > 100 µg/mL
MIC of compound in combination with PMB ([1]; PMB 0.5 μg/mL, strain A): ≤ 0.1 µg/mL
MIC of compound in combination with colistin ([1]; colistin 0.5 μg/mL, strain A): ≤ 0.1 µg/mL
MICA(A + B) (MIC of compound in combination with colistin) [1, 9]: 0.4 µg/mL
MICB(A + B) (MIC of colistin in combination with compound) [1, 9]: 0.5 µg/mL
Interpretation (of FICI) ([1]; compound + colistin): Indifferent (1.0 to 4.0 were indifferent)
FICI [1, 10]: 1.002
IC50 ([2]; Colistin 0.5 μg/mL): > 100 µM
IC50 ([2]; No polymyxin): > 100 µM
IC50 ([2]; PMB 0.5 μg/mL): > 100 µM
IC50 [2, 11]: > 33 µg/mL
IC50 ([3]; Colistin 0.5 μg/mL): > 100 µM
IC50 ([3]; No polymyxin): > 100 µM
IC50 [3, 11]: > 33 µg/mL
MIC of colistin in combination with the compound ([4]; Cpd conc. 0.4 μg/mL): > 0.5 µg/mL
MIC of colistin in combination with the compound ([4]; Cpd conc. 0.8 μg/mL): > 0.5 µg/mL
MIC of colistin in combination with the compound ([4]; Cpd conc. 3.125 μg/mL): > 0.5 µg/mL
MIC of colistin in combination with the compound ([4]; Cpd conc. 6.25 μg/mL): > 0.5 µg/mL
MIC of colistin in combination with the compound ([4]; Cpd conc. 12.5 μg/mL): > 0.5 µg/mL
MIC of colistin in combination with the compound ([4]; Cpd conc. […]): > 0.5 µg/mL
MIC ([4]; Escherichia coli, NCTC13846, agent alone, no adjuvant (polymyxin conc. 0), read-out: MIC): > 100 µg/mL
MIC of compound in combination with PMB ([4]; PMB 0.25 μg/mL): > 100 µg/mL
MIC of compound in combination with PMB ([4]; PMB 0.5 μg/mL): > 100 µg/mL
MIC of compound in combination with colistin ([4]; colistin 0.25 μg/mL): > 100 µg/mL
MIC of compound in combination with colistin ([4]; colistin 0.5 μg/mL): > 100 µg/mL
MIC of colistin in combination with the compound ([5]; Cpd conc. 0.4 μg/mL, strain C): 0.5 µg/mL
MIC of colistin in combination with the compound ([5]; Cpd conc. 0.8 μg/mL, strain C): 0.5 µg/mL
MIC of colistin in combination with the compound ([5]; Cpd conc. 3.125 μg/mL, strain C): 0.5 µg/mL
MIC of colistin in combination with the compound ([5]; Cpd conc. 6.25 μg/mL, strain C): 0.5 µg/mL
MIC of colistin in combination with the compound ([5]; Cpd conc. 12.5 μg/mL, strain C): 0.5 µg/mL
MIC of colistin in combination with the compound ([5]; Cpd conc. […], strain C): 0.5 µg/mL
MIC ([5]; agent alone, no adjuvant (polymyxin conc. 0), strain C, read-out: MIC): > 100 µg/mL
MIC [5, 8]: > 100 µg/mL
MIC of compound in combination with PMB ([5]; PMB 0.25 μg/mL, strain C): > 100 µg/mL
MIC of compound in combination with PMB ([5]; PMB 0.5 μg/mL, strain C): 1.6 µg/mL
MIC of compound in combination with colistin ([5]; colistin 0.25 μg/mL, strain C): > 100 µg/mL
MIC of compound in combination with colistin ([5]; colistin 0.5 μg/mL, strain C): ≤ 0.1 µg/mL
MICA(A + B) (MIC of compound in combination with colistin) [5, 9]: 0.4 µg/mL
MICB(A + B) (MIC of colistin in combination with compound) [5, 9]: 0.5 µg/mL
Interpretation (of FICI) ([5]; compound + colistin): Indifferent (1.0 to 4.0 were indifferent)
FICI [5, 10]: 1.002
MIC [6]: 12 to 386 µM
MIC ([7]; agent alone, no adjuvant (polymyxin conc. 0), strain G, read-out: MIC): > 100 µg/mL
MIC [7, 8]: > 100 µg/mL
MIC of colistin in combination with the compound ([7]; Cpd conc. 0.4 μg/mL, strain G): 0.5 µg/mL
MIC of colistin in combination with the compound ([7]; Cpd conc. 0.8 μg/mL, strain G): 0.5 µg/mL
MIC of colistin in combination with the compound ([7]; Cpd conc. 3.125 μg/mL, strain G): 0.5 µg/mL
MIC of colistin in combination with the compound ([7]; Cpd conc. 6.25 μg/mL, strain G): 0.5 µg/mL
MIC of colistin in combination with the compound ([7]; Cpd conc. 12.5 μg/mL, strain G): 0.5 µg/mL
MIC of colistin in combination with the compound ([7]; Cpd conc. […], strain G): 0.5 µg/mL
MIC of compound in combination with PMB ([7]; PMB 0.25 μg/mL, strain G): > 100 µg/mL
MIC of compound in combination with colistin ([7]; colistin 0.25 μg/mL, strain G): > 100 µg/mL
MIC of compound in combination with colistin ([7]; colistin 0.5 μg/mL, strain G): ≤ 0.1 µg/mL
MICA(A + B) (MIC of compound in combination with colistin) [7, 9]: 0.4 µg/mL
MICB(A + B) (MIC of colistin in combination with compound) [7, 9]: 0.5 µg/mL
Interpretation (of FICI) ([7]; compound + colistin): Indifferent (1.0 to 4.0 were indifferent)
FICI [7, 10]: 1.002
